Data as given in patent US20180188266A1, “Characterization of Type 1 Collagen Synthesis By Fluorescence Imaging and Related Drug Screening Technique” (Florida State University Research Foundation, Inc., priority 2017, published 2018).

Test system: Type 1 collagen synthesis
Test: Confocal fluorescence imaging of Type 1 collagen synthesis in cells expressing COLa1(I)/mTagBFP2 + WT COLa2(I)/mEmerald
Assay type: cell-based
Details: fixed human lung fibroblasts expressing COLa1(I)/mTagBFP2+WT COLa2(I)/mEmerald; treated for 24 hours vs untreated cell
Description: Three combinations of adenoviruses were used: • COLα1(I)/mTagBFP2 and WT COLα2(I)/mEmerald: images normal, regulated Type 1 collagen synthesis; • COLα1(I)/mTagBFP2 and MUT COLα2(I)/mEmerald: images collagen synthesis without regulation; and • COLα1(I)/mTagBFP2 and COLα2(I)/mEmeraldΔC: images absence of productive synthesis.
Adenoviruses were mixed in a ratio determined by the viral titer and added to human lung fibroblasts in culture. After 48 hours the cells were either fixed in 3.7% formalin, mounted on glass slides and imaged or they were directly imaged as live cells.
Confocal imaging of cells was performed either by Zeiss LSM 880 confocal microscope or Nikon Eclipse Ti laser spin disk confocal microscope in blue and green channels.
The drug used in the confocal microscopy imaging experiments was compound 60D17 of U.S. Pat. No. 8,729,090, which is incorporated by reference. Compound 60D17 has the following formula.

Structure (SMILES): COC(=O)CNC(=O)c1cc2c(=O)n3cccc(C)c3nc2n1C [compound 60D17]
- Effect on Type 1 collagen biosynthesis (confocal images, FIG. 4): perturbed
